Assay results from ChEMBL document CHEMBL1138883, “Synthesis and biological evaluation of new asymmetrical bisintercalators as potential antitumor drugs” (2006).

Legend:
[1] = test system: PC-3; test: Cytotoxicity against PC3 cells by SRB assay after 48 hrs; format: functional; settings: Homo sapiens, PC-3, 48 h
[2] = Ratio of K(app) for [A-T] to [G-C]

Row | Compound | GI50 [1] | LC50 (concentration for 50% net cell kill) [1] | TGI [1] | Selectivity ratio [2]
1 | CN(C)CCNC(=O)c1ccc(NCCCN(C)CCCN2C(=O)c3cccc4cc([N+](=O)[O-])cc(c34)C2=O)c2c(O)c3cc([N+](=O)[O-])ccc3nc12 | 8 nM | 4100 nM | 1300 nM | 2.1
2 | CN(C)CCCNC(=O)c1ccc(NCCCN(C)CCCNc2ccc3c(=O)n(CCCN(C)C)c(=O)n4c5ccccc5c(=O)c2c34)c2c(O)c3ccccc3nc12 | 250 nM | 2500 nM | 600 nM | 14
3 | COc1ccc2c(c1)c(=O)c1c(NCCCN(C)CCCN3C(=O)c4cccc5cc([N+](=O)[O-])cc(c45)C3=O)ccc3c(=O)n(CCN(C)C)c(=O)n2c31 | 83 nM | 9300 nM | 500 nM | 4.8
4 | CN(C)CCNC(=O)c1ccc(NCCCN(C)CCCN2C(=O)c3cccc4cccc(c34)C2=O)c2c(O)c3ccccc3nc12 | 520 nM | 5400 nM | 2000 nM | 4.1
5 | CN(C)CCNC(=O)c1ccc(NCCCN(C)CCCN2C(=O)c3cccc4cccc(c34)C2=O)c2c(O)c3cc([N+](=O)[O-])ccc3nc12 | 89 nM | 3000 nM | 630 nM | 1.4
6 | CN(C)CCCNC(=O)c1ccc(NCCCN(C)CCCN2C(=O)c3cccc4cc([N+](=O)[O-])cc(c34)C2=O)c2c(O)c3ccccc3nc12 | 50 nM | 3600 nM | 90 nM | 6.1
7 | CN(C)CCN1C(=O)c2cccc3cc([N+](=O)[O-])cc(c23)C1=O [MITONAFIDE] | 150 nM | – | 3800 nM | –
8 | CN(C)CCn1c(=O)c2ccc(NCCCN(C)CCCN3C(=O)c4cccc5cccc(c45)C3=O)c3c(=O)c4ccccc4n(c1=O)c23 | – | 2600 nM | – | 2.4
9 | CN(C)CCCn1c(=O)c2ccc(NCCCN(C)CCCN3C(=O)c4cccc5cc([N+](=O)[O-])cc(c45)C3=O)c3c(=O)c4ccccc4n(c1=O)c23 | 1700 nM | 6600 nM | 3200 nM | 20
10 | CN(C)CCNC(=O)c1ccc(NCCCN(C)CCCNc2ccc3c(=O)n(CCN(C)C)c(=O)n4c5ccccc5c(=O)c2c34)c2c(O)c3ccccc3nc12 | 100 nM | 8300 nM | 1000 nM | 1.3
